Patent US10821079B2, “PKC activators and combinations thereof” (Cognitive Research Enterprises, Inc., priority 2011, dated 2020)

What was measured:
[1] = test system: SH-SY5Y neuroblastoma cells; test: Neuronal and synaptic marker expression in cells treated with RA and Bryostatin-1 (immunofluorescence, immunoblot); format: cell-based, human
Experimental: Human SH-SY5Y neuroblastoma cells (ATCC) were cultured in 45% F12K, 45% minimum Eagle's medium, 10% fetal calf serum. […] For differentiation of SH-SY5Y cells were maintained at 2% serum and treated with 10 μM RA for 72 hr. […] Medium was changed every 3 days with fresh supplementation of RA. Rat hippocampal neurons from 18-day-old embryonic Sprague-Dawley rat brains were plated on 24-well plates coated with poly-D-lysine (Sigma-Aldrich) in neurobasal medium supplemented with B-27 containing 0.5 mM glutamine and 25 μM glutamate (Invitrogen). The neuronal cells were grown under 5% CO2 for 14 days in an incubator maintained at 37° C.
Cells were harvested in homogenizing buffer containing 10 mM Tris-Cl (pH 7.4), 1 mM PMSF (phenylmethylsulfonyl fluoride), 1 mM EGTA, 1 mM EDTA, 50 mM NaF, and 20 μM leupeptin and were lysed by sonication. […] Protein concentration was measured using the Coomassie Plus (Bradford) Protein Assay kit (Pierce, USA). Following quantification, 20 μg of protein from each sample was subjected to SDS-PAGE analysis in 4-20% gradient Tris-Glycine gel (Invitrogen, USA). […] Western Blot was imaged in the ImageQuant RT-ECL (GE Life Sciences, Piscataway, N.J.) and densitometric quantification was performed using the IMAL software (Blanchette Rockefeller Neurosciences Institute, Morgantown, W. Va.). […]

PKCα = PKCα (Homo sapiens, UniProt P17252); test: Activation of purified PKC isozymes, radiometric: PKC-α; format: biochemical
Experimental: To measure PKC activity, 10 μg of protein from either cytosol or membrane was incubated for 15 min at 37° C. in the presence of 10 μM histones, 4.89 mM CaCl2, 1.2 μg/μl phosphatidyl-L-serine, 0.18 μg/μl 1,2-dioctanoyl-sn-glycerol, 10 mM MgCl2, 20 mM HEPES (pH 7.4), 0.8 mM EDTA, 4 mM EGTA, 4% glycerol, 8 μg/ml aprotinin, 8 μg/ml leupeptin, 2 mM benzamidine, and 0.5 μCi of [γ-^32P]ATP. [^32P]Phosphoprotein formation was measured by adsorption onto phosphocellulose as described previously. See Nelson et al. (2009) J Biol Chem 284, 34514-34521. For measurements of activation by RA, PKC activity was measured in the absence of diacylglycerol (DAG) and phosphatidylserine, as described by Nelson et al. (2009) J Biol Chem 284, 34514-34521. PKC-δ and PKC-ε were measured in the absence of added EGTA and CaCl^2, as described by Kanno et al. (2006) J Lipid Res 47, 1146-1156. The enzyme was provided as a purified isozyme for in vitro experiments.
To measure PKC, 10 μl of cell homogenate or purified PKC isoform was incubated for 15 min at 37° C. in the presence of 10 μM histones, 4.89 mM CaCl2, 1.2 μg/μl phosphatidyl-L-serine, 0.18 μg/μl 1,2-dioctanoyl-sn-glycerol, 10 mM MgCl2, 20 mM HEPES (pH 7.4), 0.8 mM EDTA, 4 mM EGTA, 4% glycerol, 8 μg/ml aprotinin, 8 μg/ml leupeptin, and 2 mM benzamidine. [γ32P]ATP (0.5 μCi) was added and 32P-phosphoprotein formation was measured by adsorption onto phosphocellulose as described previously. See Nelson et al., J. Neurochemistry, 1995, 65: 2350-2357.
PKC activity of each compound was measured in the absence of diacylglycerol and phosphatidylserine and PKC-δ and PKC-ε were measured in the absence of added EGTA and CaCl2, as described by Kanno et al., J. Lipid Res., 2006, 47: 1146-1156. Low concentrations of Ca^2+ were needed because high Ca^2+ can interact with the PKC phosphatidylserine binding site and prevents activation. […] To determine their PKC isoform specificity, the compounds were pre-incubated with purified isoforms of PKC for five minutes and the PKC activity was measured radiometrically.
The activation and PKC isozyme specificity of DCPLA-ethyl ester was measured following the procedures in Example 1(B) and (C), except that 9 ng of the purified isozyme was used and it was pre-incubated for 5 minutes at room temperature (FIG. 3). PKC-ε activation by DCPLA-tert-butyl ester and DCPLA-retinyl ester was measured in the same manner as DCPLA-ethyl ester (FIG. 3).

| SMILES | increase of synaptophysin expression (immunoblot) ([1]; alone, 72 hr) [%] | effect on PKC-α (in words) (PKCα) | change in synaptophysin or PSD-95 (in words) ([1]; RA only) |
| --- | --- | --- | --- |
| CCC/C=C/C=C/C(=O)O[C@H]1/C(=C/C(=O)OC)C[C@H]2C[C@H]([C@@H](C)O)OC(=O)C[C@H](O)C[C@@H]3C[C@H](OC(C)=O)C(C)(C)C(O)(C[C@@H]4C/C(=C/C(=O)OC)C[C@H](/C=C/C(C)(C)[C@]1(O)O2)O4)O3 [Bryostatin-1] | 50 | – | – |
| CCCCCC1CC1CC1CC1CCCCCCCC(=O)OC (stereo not shown) [DCPLA-ME, methyl 8-(2-((2-pentylcyclopropyl)methyl)cyclopropyl)octanoate] | – | did not have a major effect | – |
| CC1=C(/C=C/C(C)=C/C=C/C(C)=C/C(=O)O)C(C)(C)CCC1 [RA, All-trans retinoic acid] | – | not activated | did not show much change |
